Laboratory results from US12435044B2, “Pyridazinone herbicides and pyridazinone intermediates used to prepare a herbicide” (FMC Corporation, priority 2018, dated 2025).

How the values were obtained:
Format in all cases: in vivo
[1] = system: blackgrass (Alopecurus myosuroides); assay: Test A postemergence greenhouse test
Text: (§1) Seeds of plant species selected from barnyardgrass (Echinochloa crus-galli), kochia (Kochia scoparia), ragweed (common ragweed, Ambrosia elatior), ryegrass, Italian (Lolium multiflorum), foxtail, giant (Setaria faberii), foxtail, green (Setaria viridis) and pigweed (Amaranthus retroflexus) were planted into a blend of loam soil and sand and treated preemergence with a directed soil spray using test chemicals formulated in a non-phytotoxic solvent mixture which included a surfactant.
(§2) At the same time, plants selected from these weed species and also wheat (Triticum aestivum), corn (Zea mays), blackgrass (Alopecurus myosuroides) and galium (catchweed bedstraw, Galium aparine) were planted in pots containing the same blend of loam soil and sand and treated with postemergence applications of test chemicals formulated in the same manner. Plants ranged in height from 2 to 10 cm and were in the one- to two-leaf stage for the postemergence treatment. Treated plants and untreated controls were maintained in a greenhouse for approximately 10 d, after which time all treated plants were compared to untreated controls and visually evaluated for injury. Plant response ratings, summarized in Table A, are based on a 0 to 100 scale where 0 is no effect and 100 is complete control. A dash (-) response means no test result.

corn (Zea mays) = assay: Test A postemergence greenhouse test
Text: as §1, §2

[2] = system: galium (catchweed bedstraw, Galium aparine); assay: Test A postemergence greenhouse test
Text: as §1, §2

[3] = system: wheat (Triticum aestivum); assay: Test A postemergence greenhouse test
Text: as §1, §2

[4] = system: barnyardgrass (Echinochloa crus-galli); assay: Test B flooded paddy test; details: Flood, 250 g ai/ha
Method: (§3) Plant species in the flooded paddy test selected from rice (Oryza sativa), sedge, umbrella (small-flower umbrella sedge, Cyperus difformis), duck salad (Heteranthera limosa) and barnyardgrass (Echinochloa crus-galli) were grown to the 2-leaf stage for testing. At time of treatment, test pots were flooded to 3 cm above the soil surface, treated by application of test compounds directly to the paddy water, and then maintained at that water depth for the duration of the test. Treated plants and controls were maintained in a greenhouse for 13 to 15 d, after which time all species were compared to controls and visually evaluated. Plant response ratings, summarized in Table B, are based on a scale of 0 to 100 where 0 is no effect and 100 is complete control. A dash (-) response means no test result.

[5] = system: duck salad (Heteranthera limosa); assay: Test B flooded paddy test; details: Flood, 250 g ai/ha, Ducksalad
Method: as §3

rice (Oryza sativa) = assay: Test B flooded paddy test; details: Flood, 250 g ai/ha
Method: as §3

[6] = system: sedge, umbrella (small-flower umbrella sedge, Cyperus difformis); assay: Test B flooded paddy test; details: Flood, 250 g ai/ha
Method: as §3

[7] = system: barnyardgrass (Echinochloa crus-galli); assay: Test C flooded paddy test; details: Flood, scale 0 to 100
Text: as §3, with “consisted of” for “selected from”, “(transplanted and water seeded, Oryza” for “(Oryza”, “ducksalad” for “duck salad”, “limosa), Bulrush, Japanese (Scirpus juncoides)” for “limosa)”, “crus-galli)” for “crus-galli) were”, “C” for “B,”

[8] = system: ducksalad (Heteranthera limosa); assay: Test C flooded paddy test; details: Flood, scale 0 to 100
Text: as §3, with “consisted of” for “selected from”, “(transplanted and water seeded, Oryza” for “(Oryza”, “ducksalad” for “duck salad”, “limosa), Bulrush, Japanese (Scirpus juncoides)” for “limosa)”, “crus-galli)” for “crus-galli) were”, “C” for “B,”

[9] = system: rice (transplanted and water seeded, Oryza sativa); assay: Test C flooded paddy test; details: Flood, scale 0 to 100
Text: as §3, with “consisted of” for “selected from”, “(transplanted and water seeded, Oryza” for “(Oryza”, “ducksalad” for “duck salad”, “limosa), Bulrush, Japanese (Scirpus juncoides)” for “limosa)”, “crus-galli)” for “crus-galli) were”, “C” for “B,”

[10] = system: sedge, umbrella (small-flower umbrella sedge, Cyperus difformis); assay: Test C flooded paddy test; details: Flood, scale 0 to 100
Text: as §3, with “consisted of” for “selected from”, “(transplanted and water seeded, Oryza” for “(Oryza”, “ducksalad” for “duck salad”, “limosa), Bulrush, Japanese (Scirpus juncoides)” for “limosa)”, “crus-galli)” for “crus-galli) were”, “C” for “B,”

[11] = system: barley, winter (Hordeum vulgare); assay: Test D pre-/postemergence controlled growth environment test
Text: (§4) Seeds of plant species selected from blackgrass (Alopecurus myosuroides), galium (catchweed bedstraw, Galium aparine), kochia (Kochia scoparia), oilseed rape (Brassica napus), barley, spring (Hordeum vulgare), wheat, spring (Triticum aestivum), oat, wild (Avena fatua), barley, winter (Hordeum vulgare) and wheat, winter (Triticum aestivum) were planted into a silt loam soil and treated preemergence with test chemicals formulated in a non-phytotoxic solvent mixture which included a surfactant.
(§5) At the same time, plants selected from these crop and weed species and also bluegrass (annual bluegrass, Poa annua), canarygrass (littleseed canarygrass, Phalaris minor), chickweed (common chickweed, Stellaria media), bromegrass, downy (downy bromegrass, Bromus tectorum), field poppy (Papaver rhoeas), field violet (Viola arvensis), foxtail, green (Setaria viridis), deadnettle (henbit deadnettle, Lamium amplexicaule), ryegrass, Italian (Lolium multiflorum), lambsquarters (Chenopodium album), pigweed (Amaranthus retroflexus), chamomile (scentless chamomile, Matricaria inodora), Russian thistle (Salsola kali), speedwell (bird's-eye speedwell, Veronica persica), buckwheat, wild (Polygonum convolvulus), mustard, wild (Sinapis arvensis), radish, wild (Raphanus raphanistrum), windgrass (Apera spica-venti), geranium, cutleaf (Geranium dissectum) and Canada thistle (Cirsium arvense) were planted in pots containing Redi-Earth® planting medium (Scotts Company, 14111 Scottslawn Road, Marysville, Ohio 43041) comprising spaghnum peat moss, vermiculite, wetting agent and starter nutrients and treated with postemergence applications of the test chemicals formulated in the same manner. Plants ranged in height from 2 to 18 cm (1- to 4-leaf stage). Treated plants and controls were maintained in a controlled growth environment for 14 to 21 d after which time all species were compared to controls and visually evaluated. Plant response ratings, summarized in Table D, are based on a scale of 0 to 100 where 0 is no effect and 100 is complete control. A dash (-) response means no test result.

[12] = system: oilseed rape (Brassica napus); assay: as above
Text: as §4, §5

Cc1ccc2ccc(C)c(-c3c(O)c(Cl)nn(C)c3=O)c2c1 [Cpd. No. 20, 6-chloro-4-(2,7-dimethyl-1-naphthalenyl)-5-hydroxy-2-methyl-3(2H)-pyridazinone]
100: Plant response rating (0 to 100 scale) ([2]; 125 g ai/ha) | Plant response rating (0 to 100 scale) [5]
85: Plant response rating, Ducksalad ([8]; 250 g ai/ha)
70: Plant response rating, Ducksalad ([8]; 125 g ai/ha) | Plant response rating, Sedge, Umbrella ([10]; 250 g ai/ha)
0: Plant response rating (0 to 100 scale) ([1]; 31 g ai/ha) | Plant response rating, Barnyardgrass ([7]; 31 g ai/ha) | Plant response rating, Barnyardgrass ([7]; 62 g ai/ha) | Plant response rating, Barnyardgrass ([7]; 125 g ai/ha) | Plant response rating, Ducksalad ([8]; 31 g ai/ha) | Plant response rating, Rice, Transplanted ([9]; 31 g ai/ha) | Plant response rating, Rice, Water Seeded ([9]; 31 g ai/ha) | Plant response rating, Rice, Transplanted ([9]; 62 g ai/ha) | Plant response rating, Rice, Water Seeded ([9]; 62 g ai/ha) | Plant response rating, Rice, Transplanted ([9]; 125 g ai/ha) | Plant response rating, Rice, Water Seeded ([9]; 125 g ai/ha) | Plant response rating, Rice, Transplanted ([9]; 250 g ai/ha) | Plant response rating, Rice, Water Seeded ([9]; 250 g ai/ha) | Plant response rating, Sedge, Umbrella ([10]; 31 g ai/ha) | Plant response rating, Sedge, Umbrella ([10]; 62 g ai/ha) | Plant response rating, Barley, Winter ([11]; Postemergence, 16 g ai/ha) | Plant response rating, Barley, Winter ([11]; Preemergence, 16 g ai/ha) | Plant response rating, Barley, Winter ([11]; Preemergence, 31 g ai/ha) | Plant response rating, Barley, Winter ([11]; Preemergence, 62 g ai/ha) | Plant response rating, Barley, Winter ([11]; Preemergence, 125 g ai/ha) | Plant response rating, Oilseed Rape ([12]; Preemergence, 16 g ai/ha) | Plant response rating, Oilseed Rape ([12]; Preemergence, 31 g ai/ha) | Plant response rating, Oilseed Rape ([12]; Preemergence, 62 g ai/ha) | Plant response rating, Oilseed Rape ([12]; Preemergence, 125 g ai/ha)
60: Plant response rating (0 to 100 scale) ([1]; 125 g ai/ha)
90: Plant response rating (0 to 100 scale) ([2]; 31 g ai/ha) | Plant response rating (0 to 100 scale) [6]
15: Plant response rating (0 to 100 scale) (rice (Oryza sativa)) | Plant response rating, Barley, Winter ([11]; Postemergence, 62 g ai/ha) | Plant response rating, Barley, Winter ([11]; Postemergence, 125 g ai/ha) | Plant response rating, Oilseed Rape ([12]; Postemergence, 16 g ai/ha) | Plant response rating, Oilseed Rape ([12]; Postemergence, 31 g ai/ha)
50: Plant response rating, Sedge, Umbrella ([10]; 125 g ai/ha)
20: Plant response rating (0 to 100 scale) ([3]; 31 g ai/ha) | Plant response rating, Barnyardgrass ([7]; 250 g ai/ha) | Plant response rating, Oilseed Rape ([12]; Postemergence, 62 g ai/ha)
30: Plant response rating (0 to 100 scale) (corn (Zea mays); 31 g ai/ha) | Plant response rating (0 to 100 scale) (corn (Zea mays); 125 g ai/ha) | Plant response rating (0 to 100 scale) ([3]; 125 g ai/ha) | Plant response rating, Ducksalad ([8]; 62 g ai/ha)
25: Plant response rating (0 to 100 scale) [4] | Plant response rating, Oilseed Rape ([12]; Postemergence, 125 g ai/ha)
5: Plant response rating, Barley, Winter ([11]; Postemergence, 31 g ai/ha)

Cc1ccc2ccc(F)cc2c1-c1c(O)c(Cl)nn(C)c1=O [Cpd. No. 21]
90: Plant response rating (0 to 100 scale) [5] | Plant response rating (0 to 100 scale) [6]
15: Plant response rating, Rice, Transplanted ([9]; 250 g ai/ha)
30: Plant response rating, Barnyardgrass ([7]; 125 g ai/ha) | Plant response rating, Ducksalad ([8]; 62 g ai/ha)
70: Plant response rating (0 to 100 scale) ([1]; 125 g ai/ha)
80: Plant response rating (0 to 100 scale) ([3]; 125 g ai/ha) | Plant response rating (0 to 100 scale) [4] | Plant response rating, Ducksalad ([8]; 125 g ai/ha)
85: Plant response rating, Ducksalad ([8]; 250 g ai/ha)
65: Plant response rating, Barnyardgrass ([7]; 250 g ai/ha)
10: Plant response rating (0 to 100 scale) (corn (Zea mays); 31 g ai/ha)
20: Plant response rating (0 to 100 scale) (corn (Zea mays); 125 g ai/ha)
35: Plant response rating (0 to 100 scale) (rice (Oryza sativa))
50: Plant response rating (0 to 100 scale) ([1]; 31 g ai/ha) | Plant response rating (0 to 100 scale) ([3]; 31 g ai/ha)
100: Plant response rating (0 to 100 scale) ([2]; 31 g ai/ha) | Plant response rating (0 to 100 scale) ([2]; 125 g ai/ha)
0: Plant response rating, Barnyardgrass ([7]; 31 g ai/ha) | Plant response rating, Barnyardgrass ([7]; 62 g ai/ha) | Plant response rating, Ducksalad ([8]; 31 g ai/ha) | Plant response rating, Rice, Transplanted ([9]; 31 g ai/ha) | Plant response rating, Rice, Transplanted ([9]; 62 g ai/ha) | Plant response rating, Rice, Transplanted ([9]; 125 g ai/ha) | Plant response rating, Sedge, Umbrella ([10]; 31 g ai/ha) | Plant response rating, Sedge, Umbrella ([10]; 62 g ai/ha) | Plant response rating, Sedge, Umbrella ([10]; 125 g ai/ha) | Plant response rating, Sedge, Umbrella ([10]; 250 g ai/ha)
